# Measurements taken from US20240398813A1, “PHARMACEUTICAL COMPOSITION FOR PREVENTING OR TREATING OVERACTIVE BLADDER” (GWANGJU INSTITUTE OF SCIENCE AND TECHNOLOGY, priority 2021, published 2024).
# How the values were obtained:
# [1] = molecular target: T1, hyperactive mutant BKCa channels (hSlo G803D/N806K) stably expressed in AD 293 cells (Homo sapiens, UniProt Q12791, G856D/N859K); assay: Cell-based fluorescence assay (FluxOR Potassium Ion Channel Assay) of BKCa channel activation; details: compounds at 5 μM; n=3; vehicle 0.26
# T1 construct: expressed in transfected cells
# T1 sequence (Q12791 whole entry G856D/N859K): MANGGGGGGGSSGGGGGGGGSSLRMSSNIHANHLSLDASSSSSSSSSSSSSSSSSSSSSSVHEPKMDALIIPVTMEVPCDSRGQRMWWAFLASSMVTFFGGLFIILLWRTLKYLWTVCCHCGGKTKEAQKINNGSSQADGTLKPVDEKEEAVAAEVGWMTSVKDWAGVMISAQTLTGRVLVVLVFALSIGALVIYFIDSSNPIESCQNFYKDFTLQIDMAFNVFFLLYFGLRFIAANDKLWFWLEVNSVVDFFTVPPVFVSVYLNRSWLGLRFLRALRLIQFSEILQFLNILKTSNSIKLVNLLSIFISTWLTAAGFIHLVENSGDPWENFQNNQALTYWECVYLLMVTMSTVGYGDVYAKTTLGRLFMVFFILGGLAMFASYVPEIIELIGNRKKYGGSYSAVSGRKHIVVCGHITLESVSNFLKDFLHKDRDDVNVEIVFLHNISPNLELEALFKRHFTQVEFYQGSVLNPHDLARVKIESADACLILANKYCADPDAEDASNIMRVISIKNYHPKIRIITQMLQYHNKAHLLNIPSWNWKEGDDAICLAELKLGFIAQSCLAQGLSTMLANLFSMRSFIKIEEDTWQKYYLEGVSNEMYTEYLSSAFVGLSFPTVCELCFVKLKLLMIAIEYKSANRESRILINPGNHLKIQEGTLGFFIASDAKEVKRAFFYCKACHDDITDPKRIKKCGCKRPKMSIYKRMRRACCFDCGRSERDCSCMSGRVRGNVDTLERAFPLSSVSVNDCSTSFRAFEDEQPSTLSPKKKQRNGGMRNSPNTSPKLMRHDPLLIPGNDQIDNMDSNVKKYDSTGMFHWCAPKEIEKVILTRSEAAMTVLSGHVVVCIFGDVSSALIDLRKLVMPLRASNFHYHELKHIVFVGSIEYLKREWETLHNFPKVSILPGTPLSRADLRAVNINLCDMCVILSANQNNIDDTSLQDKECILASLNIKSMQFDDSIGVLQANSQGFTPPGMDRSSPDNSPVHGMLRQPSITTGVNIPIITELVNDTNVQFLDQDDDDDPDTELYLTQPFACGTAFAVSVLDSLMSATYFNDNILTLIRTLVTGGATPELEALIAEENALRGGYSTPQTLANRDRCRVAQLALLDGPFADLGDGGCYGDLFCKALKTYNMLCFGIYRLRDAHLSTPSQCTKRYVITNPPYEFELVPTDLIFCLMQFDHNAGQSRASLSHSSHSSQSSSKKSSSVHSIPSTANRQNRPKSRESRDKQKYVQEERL
# [2] = molecular target: T2, BKCa channels (rat KCNMA, rSlo α) (Rattus norvegicus, UniProt Q62976); assay: Macroscopic current recording, outside-out patch clamp, BKCa channels expressed in Xenopus oocytes; type: cell-based
# T2 construct: expressed in transfected cells; host or cells: Xenopus laevis oocytes injected with cRNA
# T2 sequence (Q62976 whole entry): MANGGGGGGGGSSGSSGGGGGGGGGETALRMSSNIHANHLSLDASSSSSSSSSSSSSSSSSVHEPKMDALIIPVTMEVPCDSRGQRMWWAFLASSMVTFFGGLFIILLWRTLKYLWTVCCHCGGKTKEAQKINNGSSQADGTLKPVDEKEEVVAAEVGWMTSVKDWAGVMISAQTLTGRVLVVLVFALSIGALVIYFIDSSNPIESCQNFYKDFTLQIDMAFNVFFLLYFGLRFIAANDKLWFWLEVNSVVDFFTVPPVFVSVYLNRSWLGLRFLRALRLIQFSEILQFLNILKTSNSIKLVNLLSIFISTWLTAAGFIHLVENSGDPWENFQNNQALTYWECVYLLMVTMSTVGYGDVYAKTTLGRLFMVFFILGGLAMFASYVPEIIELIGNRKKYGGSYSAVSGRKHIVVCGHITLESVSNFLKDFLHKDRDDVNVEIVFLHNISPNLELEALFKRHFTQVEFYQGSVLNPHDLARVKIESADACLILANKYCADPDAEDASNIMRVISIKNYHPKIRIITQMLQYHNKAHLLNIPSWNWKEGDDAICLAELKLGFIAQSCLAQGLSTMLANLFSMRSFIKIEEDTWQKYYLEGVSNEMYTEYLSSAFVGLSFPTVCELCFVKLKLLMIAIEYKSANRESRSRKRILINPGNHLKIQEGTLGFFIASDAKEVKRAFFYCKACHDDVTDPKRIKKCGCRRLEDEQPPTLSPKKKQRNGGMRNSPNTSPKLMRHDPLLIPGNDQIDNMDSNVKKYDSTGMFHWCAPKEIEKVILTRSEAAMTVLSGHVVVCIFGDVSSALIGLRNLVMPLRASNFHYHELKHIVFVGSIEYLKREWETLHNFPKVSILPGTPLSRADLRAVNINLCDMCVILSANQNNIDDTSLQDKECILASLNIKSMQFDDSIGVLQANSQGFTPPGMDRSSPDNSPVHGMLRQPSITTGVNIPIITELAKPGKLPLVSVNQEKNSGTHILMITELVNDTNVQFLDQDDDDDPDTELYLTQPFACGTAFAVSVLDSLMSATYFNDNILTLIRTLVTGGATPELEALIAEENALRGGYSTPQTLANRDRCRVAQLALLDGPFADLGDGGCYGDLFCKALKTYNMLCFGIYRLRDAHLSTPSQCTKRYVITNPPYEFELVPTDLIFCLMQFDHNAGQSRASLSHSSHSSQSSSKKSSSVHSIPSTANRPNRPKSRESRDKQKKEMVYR
# Excerpt: (§1) The complete coding sequence (CDS) of each of rat KCNMA (rSlo α) (GenBank AF135265.1), KCNMB1 (rSlo 01) (GenBank FJ154955.1) and KCNMB4 (rSlo β4) (GenBank AY028605) was subcloned into pNBC2.0 or pNBC2.0. These vectors were designed to be expressed in Xenopus oocytes (Ha, T. S., Lim, H. H., Lee, G. E., Kim, Y. C., & Park, C. S. (2006). Electrophysiological characterization of benzofuroindole-induced potentiation of large-conductance Ca2+-activated K+ channels. Mol Pharmacol, 69(3), 1007-1014). The plasmid was linearized by NotI and complementary RNA (cRNA) was synthesized using the Ambion T7 mMESSAGE mMACHINE kit (Invitrogen, Carlsbad, CA, USA) according to the manufacturer's instructions. Xenopus laevis (KXRCR000001) was obtained from the Korea Xenopus Resource Center for Research (Chuncheon-si, Gangwon-do, Korea). Stage V-VI oocytes were surgically extracted from the ovarian lobes of X. laevis. A follicular cell layer was removed by culturing in Ca^2+-free oocyte Ringer's medium (86 mM NaCl, 1.5 mM KCl, 2 mM MgCl2 and 10 mM HEPES, pH 7.6) containing collagenase for 1.5 hours at room temperature. Oocytes without follicular layer were washed with ND-96 medium (96 mM NaCl, 2 mM KCl, 1.8 mM CaCl2), 1 mM MgCl2, 5 mM HEPES, […] gentamicin, pH 7.6). The prepared oocytes were stabilized overnight at 18° C. cRNA was injected into each oocyte (50 ng per oocyte) using a microdispenser (Drummond Scientific, Broomall, PA, USA). For co-expression of the β subunits, cRNA was mixed at a molar ratio of 1:12 (α:β) to induce sufficient co-assembly of the R subunits. After injection of cRNA, the oocytes were cultured in ND-96 medium for 1-3 days at 18° C. Before recording macroscopic currents, vitelline membranes of the oocytes were completely removed using fine forceps.
# All macroscopic current recordings in the BKCa channels were performed using the gigaohm-seal patch-clamp method in an outside-out configuration (Ha et al., 2006). A patch pipette was made of borosilicate glass (WPI, Sarasota, FL, USA) and fire-polished by a resistance of 3-5 MQ. Ion currents were amplified using an Axopatch 200B amplifier (Molecular Devices). The currents were low-pass filtered at 1 kHz using a four-pole Bessel filter and digitized at a rate of 10 or 20 points/ms using a Digidata 1200A interface (Molecular Devices). The BKCa channels were activated by repeated voltage clamps at +100 mV or by voltage clamp pulses ranging from −80 to +200 mV with an increment of 10 mV. The resting potential was maintained at −100 mV. The recording solution contained 116 mM KOH, 4 mM KCl, 10 mM HEPES, and 5 mM EGTA (pH 7.2). The intracellular solution contained 3 μM Ca^2+ in the recording solution (pH 7.0). MaxChelator program was used to calculate the total amount of Ca^2+ to be added to the intracellular solution for obtaining free Ca^2+ at a concentration of 3 μM.
# The commercial software Clampex 8.0 (Molecular Device) and Origin 9.1 (OriginLab Corp., Northampton, MA, USA) were used for data analysis and fitting of the macroscopic currents. A conductance-voltage (G-V) curve obtained from the external current was fitted by the Boltzmann equation [y=(Gmax−Gmin)/{1+exp[(V1/2−x)/k]}+Gmin]. Wherein k is RT/zF, and wherein R is a gas constant, T is a temperature, F is the Faraday's constant, and z is a gating charge. Gmax is the maximum conductivity and V1/2 is a voltage for half maximum conductivity. The concentration-dependent V1/2 shift was fitted by the Hill equation [y=AVi/2,max x^n/(EC50^n+x^n)]. Wherein ΔV1/2,max is a constant. EC50 is half the apparent maximum effective concentration and n is the Hill coefficient. By definition, the apparent dissociation constant KD was obtained by EC50^n. The association time constant (r association) was obtained by fitting the exponential equation [y=A exp(−x/τ)+C]. Wherein A and C are constants and τ is the time to reach (1−1/e) ( ? 63%) of the maximum current level. […]
# [3] = molecular target: T3, BKCa channels co-expressed with the β1 subunit (rSlo α + KCNMB1) (Rattus norvegicus, UniProt Q62976); assay: Macroscopic current recording, BKCa channels co-expressed with β1 subunits in Xenopus oocytes; type: cell-based; details: 10 μM
# T3 construct: expressed in transfected cells; host or cells: Xenopus laevis oocytes, cRNA alpha:beta 1:12
# T3 sequence (Q62976 whole entry): as above
# T3 sequence (P97678 whole entry partner): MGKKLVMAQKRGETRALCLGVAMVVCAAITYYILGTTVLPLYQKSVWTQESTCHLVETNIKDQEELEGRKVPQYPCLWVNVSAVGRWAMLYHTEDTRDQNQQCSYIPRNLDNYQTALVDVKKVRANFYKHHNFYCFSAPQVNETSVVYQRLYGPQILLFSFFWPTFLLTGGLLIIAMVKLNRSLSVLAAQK
# Excerpt: as §1
# All macroscopic current recordings in the BKCa channels were performed using the gigaohm-seal patch-clamp method in an outside-out configuration (Ha et al., 2006). A patch pipette was made of borosilicate glass (WPI, Sarasota, FL, USA) and fire-polished by a resistance of 3-5 MQ. […]
# [4] = test system: Spontaneously hypertensive rats (SHR); assay: In vivo model of OAB: urination in spontaneously hypertensive rats after oral administration; set-up: species or system rat; details: 3 hours
# Procedure: Male rats with body weights of 300 to 350 g were deprived of food and water overnight before the experiment, and then were randomly divided into a drug administration group and a control group. All animals were provided free access to water for 2 hours, and then 10 mL/kg of vehicle solution [DMSO:PEG400:distilled water=5:40:55 (v/v)] as a test substance were orally administered. After oral administration of the test substance, the rats were placed in a metabolic cage and the number of urinations and urine volume were measured for 3 hours.
# The in vivo treatment effects of the compounds for […] were investigated in spontaneously hypertensive rats (SHR) with OAB symptoms after oral administration. Wistar-Kyoto rats (WKY) were used as the healthy animal control, and urination frequency was increased more than 2.8 times in SHR compared to WKY. Compound 208 reduced the urination frequency in SHR (50 mg/kg) by 33%, which is quite close to the urination frequency of the normal group (see FIG. 18).
# [5] = washout after 10 μM, double exponential fit
compound,measurement,setting,value
"Cc1cccc(NC(=O)c2sc(=S)n3c2[nH]c(=O)c2cc(Br)ccc23)c1 [TTQC-1, 7-bromo-5-oxo-1-thioxo-N-(m-tolyl)-4,5-dihydro-1H-thiazolo[3,4-a]quinazoline-3-carboxamide]",Activity (ΔRFU normalized by activities of LDD175),[1],1.06
same,effect on channel activation time constant (τ activation),[2]; 10 μM,did not show significant changes
same,association time constant (τ association),"[2]; 10 μM, +100 mV pulses, 3 μM intracellular Ca2+",11.7 ± 1.77 s
same,increase of channel deactivation time constant (τ deactivation),"[2]; 10 μM, at +200 mV",5.3 times
same,half-activation voltage (V1/2),[2]; 30 μM,37.9±7.50 mV
same,increase of maximum conductance (Gmax) compared to vehicle (G0max),[2]; 30 μM,1.4±0.11 times
same,EC50,"[2]; 0.1-30 μM, 3 μM intracellular Ca2+, read-out: apparent EC50 of V1/2 shift (Hill equation)",2800 nM
same,Hill coefficient n,[2]; fit of V1/2 shift,2.0
same,Afast (amplitude of fast dissociation component),[2]; washout after 10 μM,0.49±0.064
same,Aslow (amplitude of slow dissociation component),[2]; washout after 10 μM,0.53±0.054
same,"dissociation time constant, fast component",[2]; [5],7.8 ± 1.10 s
same,"dissociation time constant, slow component",[2]; [5],136.2 ± 11.24 s
same,effect on τ activation,[3],changed the τ activation only at 190 mV
same,increase of τ deactivation,[3]; at 180 mV,4.6 times
same,shift of G-V curve to the left,[3]; β1 co-expressed,23.0±2.67 mV
same,number of urinary events,"[4]; 10 mg/kg oral, SHR vehicle 8.2",3.0
same,total urine volume,[4]; oral,significantly reduced
